Data reported in patent EP4335452A1, “PHARMACEUTICAL COMPOSITION FOR ENHANCING ANTICANCER EFFECT OF ANTICANCER DRUG” (L-Base Co., Ltd., priority 2021, dated 2024).
Ends that are not written are not given here.

Key:
[1] = tested on: lung cancer cell line H1975; experiment: MTT assay, cell viability, lung cancer cell line H1975; type: cell-based; details: 48 hours
[2] = tested on: breast cancer cell line HCC1937; experiment: MTT assay, cell viability, breast cancer cell line HCC1937; type: cell-based; details: Olaparib 2.5 µM alone, 24 hours, FIG. 4B
[3] = tested on: H1975/OR; experiment: MTT assay, cell viability, H1975/OR; type: cell-based; details: Osimertinib 2.5 µM alone, 68 hours, FIG. 1G
Method: (§1) Specifically, cells were seeded at 2 × 10^3/100 µl per well on a 96-well plate, and after culturing for 24 hours, the compound according to the present invention was administered; 4 hours later, anticancer drugs were treated to each cancer cell. The treatment concentration and treatment time of the compound and anticancer drug are specifically described in the embodiment. After completing the treatment of the compound and anticancer drug, CellTiter-96® reagent (Promega Co., USA) was reacted at 5% CO2, 37°C after adding 10 µl per well. After 3 hours, absorbance was measured at 490 nm using a spectrophotometer (SPECTROstar^Nano, BMG).

[4] = tested on: H820 lung cancer cell line; experiment: Heterotransplant lung cancer animal model (H820), tumor growth; type: in vivo; details: H820 nude mice; Osimertinib single administration, 2.5 mpk orally daily; FIG. 6A
Method: The test substances were administered intravenously and orally 7 times at 2-day intervals.
Nude mice transplanted with H820 lung cancer cell line, an animal model of lung cancer described in the "Experimental Materials and Methods," was treated 7 times at a two-day interval for 14 days with 3-PhPh-[…] at a dose of 10 mpk, and Osimertinib was orally administered daily at 2.5 mpk. Then, the growth of the tumor was compared.

[5] = tested on: H1975 cell line; experiment: Heterotransplant lung cancer resistance animal model (H1975), tumor growth after Osimertinib resistance; type: in vivo, Balb/C nude mice
[6] = tested on: lung cancer cell line H1975; experiment: MTT assay, cell viability, lung cancer cell line H1975; type: cell-based; details: Ac-AQTGTGKT 10 µM alone, 48 hours, FIG. 1C
Method: as §1

For Nc1nc2[nH]cc(CCc3ccc(C(=O)N[C@@H](CCC(=O)O)C(=O)O)cc3)c2c(=O)[nH]1 [Alimta, Alimta (Pemetrexed)], the “cell viability decreased compared to the control group” value (shortened to “cell viability decreased”) ([1]; Alimta 0.2 µM alone, FIG. 1E) was “about 6%”.

With O=C(c1cc(Cc2n[nH]c(=O)c3ccccc23)ccc1F)N1CCN(C(=O)C2CC2)CC1 [Olaparib] the “decrease in cell viability compared to the control group” value [2] was “no decrease in cell viability”.

With C=CC(=O)Nc1cc(Nc2nccc(-c3cn(C)c4ccccc34)n2)c(OC)cc1N(C)CCN(C)C [Osimertinib] the “cell viability decreased” value [3] was “about 7%”, the “cell viability decreased” value ([1]; Osimertinib 1 µM alone, FIG. 1B) was “about 5%” and the “tumor growth reduced compared to the control group (PBS administered group)” value [4] was 46%. For the same compound, the “size of the tumor on the day of termination of administration (average)” value ([5]; H1975, after Osimertinib resistance, Osimertinib 5 mpk orally daily + PBS intravenously at a two-day interval, FIG. 6B) was 692.6 mm^3 and the “tumor viability rate (tumor size on the 28th day versus the last measured tumor size)” value ([5]; H1975 Balb/C nude mice, Osimertinib 5 mpk orally daily, regrowth from the 24th day, judged as acquired resistance) was “over 50%”.

Ac-AQTGTGKT was tested, and the “cell viability decreased” value [6] was “about 14%”.
